What was measured:
Type in all cases: in vivo, patients
[1] = tested on: advanced colorectal cancer; assay: OPTIMOX1 study: FOLFOX4 until progression (arm A) versus stop-and-go FOLFOX7 (arm B); settings: OPTIMOX1, previously untreated advanced colorectal cancer
Procedure: The OPTIMOX1 study examined the effect of oxaliplatin reintroduction in previously untreated patients with advanced colorectal cancer. The details of this study have been recently published by Tournigand et al., J. Clin. Oncol. (January 2006);24:394, and they are incorporated herein by reference. Two different FOLFOX regimens were used in the study: FOLFOX4 and FOLFOX7. The FOLFOX4 regimen comprises oxaliplatin 85 mg/m^2 given as a 2-hour infusion on day 1, leucovorin 200 mg/m^2 given as a 2-hour infusion on days 1 and 2, and 5-FU given on days 1 and 2 as a bolus of 400 mg/m^2 that is followed directly by a 22-hour infusion of 5-FU 600 mg/m^2 on each day. The oxaliplatin infusion on day 1 is given concurrently with leucovorin, and on each day the 5-FU bolus directly follows the 2-hour infusion of leucovorin. FOLFOX7 comprises oxaliplatin 130 mg/m^2 and leucovorin 200 mg/m^2 given concurrently as 2-hour infusions on day 1, followed directly by a 46 hour infusion of 5-FU at 2400 mg/m^2. In some patients, the I-leucovorin isomer was used, but at half the mg/m^2 dosage for dI-leucovorin.
Patients were randomized to either FOLFOX4 every 2 weeks until progression (arm A), or FOLFOX7 for 6 cycles, maintenance with leucovorin-5-FU but without oxaliplatin for 12 […], and reintroduction of FOLFOX7 (arm B). […]

[2] = tested on: advanced colorectal cancer; assay: Retrospective analysis of OPTIMOX1: effect of oxaliplatin reintroduction on overall survival (Cox model, centers grouped by reintroduction class)
Procedure: A retrospective analysis was used to evaluate the effect of oxaliplatin reintroduction on overall survival. The percentage of patients with oxaliplatin reintroduction was calculated in each center regardless of treatment arm, number of patients, or whether reintroduction was per protocol. A Cox model was used to analyze the impact of oxaliplatin reintroduction on survival, after adjustment for all baseline covariates, and using random effects to account for the fact that the percentage of patients with oxaliplatin reintroduction was estimated in each center. Centers were grouped by percentage of oxaliplatin reintroduction into 4 reintroduction classes defined according to the percentage of patients with oxaliplatin reintroduction (0, 1-20, 21-40, and >40). The hazard ratio (HR; adjusted for all baseline covariates) was calculated for each reintroduction class, using centers with no reintroduction (0%) as the reference group.

[3] = OPTIMOX1 study: neurotoxicity; settings: stopping oxaliplatin after the sixth cycle
Description: Sensory neurotoxicity can be measured using known techniques and graded using defined criteria. For example, the National Cancer Institute Common Toxicity Criteria (NCI CTC) version 2.0 can be used to grade sensory neuropathy. Using these criteria, an NCI grade of 0 means that there is no change associated with the treatment. NCI grade 1 indicates the loss of deep tendon reflexes or paresthesia (including tingling) not interfering with function. […] NCI Grade 3 indicates sensory loss or paresthesia that interferes with activities of daily living. NCI Grade 4 is reserved for permanent sensory loss that interferes with function.
The OPTIMOX1 study examined the effect of oxaliplatin reintroduction in previously untreated patients with advanced colorectal cancer. The details of this study have been recently published by Tournigand et al., J. Clin. Oncol. (January 2006);24:394, and they are incorporated herein by reference. Two different FOLFOX regimens were used in the study: FOLFOX4 and FOLFOX7. The FOLFOX4 regimen comprises oxaliplatin 85 mg/m^2 given as a 2-hour infusion on day 1, leucovorin 200 mg/m^2 given as a 2-hour infusion on days 1 and 2, and 5-FU given on days 1 and 2 as a bolus of 400 mg/m^2 that is followed directly by a 22-hour infusion of 5-FU 600 mg/m^2 on each day. […]

SMILES: O=C1[O][Pt]2([NH][C@@H]3CCCC[C@H]3[NH]2)[O]C1=O [oxaliplatin]
- prognostic value of oxaliplatin reintroduction for overall survival [1]: independent prognostic factor for improved overall survival
- Median survival ([2]; >40% reintroduction class): 23 months
- impact of percentage of patients with oxaliplatin reintroduction on survival ([2]; after adjustment for all other factors, p<0.001): highly significant impact on survival
- impact of reintroduction class on survival ([2]; after adjustment for all other factors, p=0.02): significant impact on survival
- Adjusted survival hazard ratio (95% C.I.) ([2]; centers with 0% patients with oxaliplatin reintroduction (reference group)): 1.00 (reference)
- Adjusted survival hazard ratio (95% C.I.) ([2]; centers with 1–20% patients with oxaliplatin reintroduction, versus 0% reference): 0.91 (0.56–1.48)
- Adjusted survival hazard ratio (95% C.I.) ([2]; centers with 21–40% patients with oxaliplatin reintroduction, versus 0% reference): 0.78 (0.50–1.21)
- Adjusted survival hazard ratio (95% C.I.) ([2]; centers with >40% patients with oxaliplatin reintroduction, versus 0% reference): 0.59 (0.38–0.91)
- Median survival ([2]; reference group (0% reintroduction)): 15 months
- risk of grade 3 or 4 neurotoxicity [3]: reduced risk

From patent publication US20080085881A1, “Stop-and-go oxaliplatin treatment regimens” (priority 2006, published 2008)
